Measured values published in US11419878B2, “Medicine obtained by combining FXR agonist and ARB” (Intercept Pharmaceuticals, Inc., priority 2016, dated 2022).

What was measured:
[1] = test system: Otsuka Long-Evans Tokushima Fatty (OLETF) rats administered porcine serum (PS); assay: Rat NASH model (OLETF rats given porcine serum), Sirius Red histology of hepatic fibrosis; format: in vivo; conditions: obeticholic acid 30 mg/kg/day and/or losartan 30 mg/kg/day oral; for fibrosis index (FI) as fraction of the level in the positive control group: PS 8 weeks, p<0.01; for progression of hepatic fibrosis (micrographs of Sirius Red-stained liver sections): PS i.p. twice weekly 8 weeks
Description: As a rat NASH model, Otsuka Long-Evans Tokushima. Fatty (OLETF) rats, which are known as a model for naturally-occurring type II diabetes with obesity, were administered porcine serum (PS) in order to experimentally induce liver fibrosis, and the therapeutic effects of distilled water (vehicle administration group), obeticholic acid (an FXR agonist) and losartan (an ARB) (administration groups, combined administration group) were investigated according to the following method.
Male OLETF rats (n=40) and Long-Evans Tokushima Otsuka (LETO) rats=10; non-diabetic negative control group)
Obeticholic acid (obtained from Intercept Pharmaceuticals, Inc. via Sumitomo Dainippon Pharma Co., Ltd.) was used as an FXR agonist, and commercial losartan (potassium salt of losartan; referred to in this working example simply as “losartan”) was used as an ARB.
Obeticholic acid (30 mg/kg/day) and/or losartan (30 mg/kg/day) was/were given by forced oral administration; the administration period was 8 weeks in all cases.
12-week-old OLETF rats were randomly divided into 4 groups (G2, G3, G4, G5) (n=10 for each group) and given intraperitoneal administrations of 1.0 ml/kg of porcine serum (PS) twice weekly for 8 weeks. 12-week-old LETO rats (n=10) were taken as group G1 and administered PS in the same manner. On the same day on which PS administration was begun, the group G3 and G4 rats were respectively administered obeticholic acid (30 mg/kg/day) and losartan (30 mg/kg/day) daily for 8 weeks by forced continuous oral administration. The group G5 rats were given daily combined administration of obeticholic acid (30 mg/kg/day) and losartan (30 mg/kg/day) for 8 weeks in the same manner. The rats in the G1 group (LETO) and G2 group (OLETF) were administered distilled water as a vehicle instead of the drugs and taken as the negative and positive control group respectively (with the same administration method as in the drug groups).
In order to evaluate the progression of hepatic fibrosis, formalin-fixed paraffin-embedded liver sections (5 μm in width) were taken from rats that had completed the above testing and stained with Sirius Red. Micrographs of the stained sections were taken and collected (in all of the rats, microscopic images were collected with a total of 10 fields per sample), and the micrographs of the various groups were compared. In order to quantitate the progression of fibrosis in the various groups, a semiquantitative analysis of the histological characteristics of the images of the stained specimens collected was conducted using ImageJ software from the NIH (National Institutes of Health).

[2] = test system: human hepatic stellate cells (HHSC); assay: HHSC proliferation inhibition, WST-1 cell proliferation assay; format: cell-based; conditions: AT-II 10^-6M + LPS 10^-5M; ARB 10^-6M, obeticholic acid 5×10^-6M; 24 hours; WST-1 absorbance
Description: The various combined effects of obeticholic acid and three types of ARBs (losartan, valsartan, and candesartan) were confirmed in an in vitro cell system experiment. Specifically, using human hepatic stellate cells (HHSC), which are implicated in the main mechanism of progression of hepatic fibrosis in NASH, the effects of administration of obeticholic acid in combination with the three ARBs of inhibiting HHSC proliferation capacity and the expression of fibrosis markers were evaluated according to the following method. Human hepatic stellate cells (HHSC) (also referred to as human hepatic star cells) Obeticholic acid (obtained from Intercept Pharmaceuticals, Inc. via Sumitomo Dainippon Pharma Co., Ltd.) was used as an FXR agonist, and commercial losartan (potassium salt of losartan; referred to in this working example simply as “losartan”) and valsartan and candesartan ([…] of candesartan; referred to in this working example simply as “candesartan”) were used as ARBs. […] The direct action of inhibiting HIISC proliferation capacity was evaluated by means of a cell proliferation assay using WST-1 reagent. […] AT-II (10^-6M) Positive control group L […]): LPS 10^-5M) Positive control group AL ([…]): (10^-6M)+LPS (10^-5M) Obeticholic acid administration (G3): AT-II (10^-6M)+LPS (10^-5M)+obeticholic acid (5×10^-6M) ARB administration (G4): AT-II (10^-6M)+LPS (10^-5M)+ARB (10^-6M) Obeticholic acid+ARB combined administration (G5): AT-II (10^-6M)+LPS (10^-5M)+obeticholic acid (5×10^-6M)+ARB (10^-6M) 3) After the cells of the above groups (G1, G2A, G2L, G2AL, G3, G4, G5) were cultured for 24 hours, respective WST-1 cell proliferation assays were conducted, and the inhibitory effect of the pharmaceutical agents on cell proliferation was evaluated. The inhibitory effect of valsartan and candesartan on HHSC proliferation was also evaluated according to steps 1)-3) above. […]

FXR = molecular target: T1, FXR (Homo sapiens, UniProt Q96RI1); conditions: background statement; cited from earlier work
T1 sequence (Q96RI1 1-486): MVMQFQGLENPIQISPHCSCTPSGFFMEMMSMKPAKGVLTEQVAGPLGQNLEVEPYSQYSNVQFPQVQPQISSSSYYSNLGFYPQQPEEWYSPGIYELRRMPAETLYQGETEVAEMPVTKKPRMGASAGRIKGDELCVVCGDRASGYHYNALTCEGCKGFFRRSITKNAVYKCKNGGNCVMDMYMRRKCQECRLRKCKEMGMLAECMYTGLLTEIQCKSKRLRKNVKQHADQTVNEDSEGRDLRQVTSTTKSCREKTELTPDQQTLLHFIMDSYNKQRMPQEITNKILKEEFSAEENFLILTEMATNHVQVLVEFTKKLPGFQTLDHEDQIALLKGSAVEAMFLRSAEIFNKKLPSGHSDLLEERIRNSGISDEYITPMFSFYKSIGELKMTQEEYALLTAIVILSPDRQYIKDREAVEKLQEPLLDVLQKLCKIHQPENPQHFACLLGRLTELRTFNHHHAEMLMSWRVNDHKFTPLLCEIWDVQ

| Compound | fibrosis index (FI) as fraction of the level in the positive control group [1] | progression of hepatic fibrosis (micrographs of Sirius Red-stained liver sections) [1] | promotion of activated HHSC proliferation by AT-II and LPS, compared to positive control group AL (G2AL) [2] | FXR agonist action / FXR-stimulating action (FXR) |
| --- | --- | --- | --- | --- |
| CCCCc1nc(Cl)c(CO)n1Cc1ccc(-c2ccccc2-c2nn[nH]n2)cc1 [losartan] | 7/10 | moderately inhibited | statistically significant inhibition |  |
| CC[C@H]1[C@@H](O)[C@@H]2[C@H](CC[C@]3(C)[C@@H]([C@H](C)CCC(=O)O)CC[C@@H]23)[C@@]2(C)CC[C@@H](O)C[C@@H]12 [obeticholic acid, 3α,7α-dihydroxy-6α-ethyl-5β-cholan-24-oic acid] | approximately 6/10 | moderately inhibited |  | strongest FXR-stimulating action among the semi synthetic alkylated bile acids |
